Data: patent US20020111274A1, “1-alkyl-3-[1-(substituted phenyl) benzotriazol-6-yl] uracils” (BASF Aktiengesellschaft, priority 2000, published 2002)

Experiments:
Set-up in all cases: scale not given here
[1] = system: CASOB Sicklepod; assay: Postemergence herbicidal evaluation, CASOB; type: in vivo, Cassia obtusifolia, L.; conditions: postemergence spray, rated about two-three weeks after treatment
Summary of the method: (§1)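 Two-week-old seedlings sprayed postemergence with compound in 80/20 acetone/water plus 1.0% methylated seed oil, at about 0.006–0.400 kg/ha, through a nozzle at 40 psi. Plants kept under greenhouse conditions and visually rated about two–three weeks after treatment; ratings from repeat tests averaged.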

[2] = system: ORYSAT Rice, Tebonnet; assay: Preemergence herbicidal evaluation, ORYSAT; type: in vivo, Oryza sativa, (L.); conditions: preemergence
Summary of the method: (§2)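 Visual ratings were taken four to five weeks after application. Before that, cups sown with seed in potting soil received a spray of compound dissolved in aqueous acetone, equivalent to about 0.013 to 0.800 kg/ha, and stood on greenhouse benches under conventional care.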

[3] = system: GLXMAW Soybean, Williams; assay: Postemergence herbicidal evaluation, GLXMAW; type: in vivo, Glycine max, (L.) Merr. cv Williams; conditions: postemergence spray, rated about two-three weeks after treatment
Summary of the method: as §1

[4] = system: ZEAMX Corn, Field; assay: Preemergence herbicidal evaluation, ZEAMX; type: in vivo, Zea mays, L. (Sammel-Bezeichnung); conditions: preemergence
Summary of the method: as §2

[5] = system: GLXMAW Soybean, Williams; assay: Preemergence herbicidal evaluation, GLXMAW; type: in vivo, Glycine max, (L.) Merr. cv Williams; conditions: preemergence
Summary of the method: as §2

[6] = system: SETVI Foxtail, Green; assay: Postemergence herbicidal evaluation, SETVI; type: in vivo, Setaria viridis, (L.) Beau; conditions: postemergence spray, rated about two-three weeks after treatment
Summary of the method: as §1

[7] = system: ORYSAT Rice, Tebonnet; assay: Postemergence herbicidal evaluation, ORYSAT; type: in vivo, Oryza sativa, (L.); conditions: postemergence spray, rated about two-three weeks after treatment
Summary of the method: as §1

[8] = system: ECHOG Barnyardgrass; assay: Preemergence herbicidal evaluation, ECHOG; type: in vivo, Echinochloa crus-galli, (L.) Beau; conditions: preemergence
Summary of the method: as §2

[9] = system: TRZAWR Wheat, Winter, cv Riband; assay: Preemergence herbicidal evaluation, TRZAWR; type: in vivo, Triticum aestivum; conditions: preemergence
Summary of the method: as §2

[10] = system: IPOHE Morningglory, Ivyleaf; assay: Postemergence herbicidal evaluation, IPOHE; type: in vivo, Ipomoea hederacea, (L.) Jacq.; conditions: postemergence spray, rated about two-three weeks after treatment
Summary of the method: as §1

[11] = system: ABUTH Velvetleaf; assay: Postemergence herbicidal evaluation, ABUTH; type: in vivo, Abutilon theophrasti, Medic.; conditions: postemergence spray, rated about two-three weeks after treatment
Summary of the method: as §1

[12] = system: GALAP Galium; assay: Preemergence herbicidal evaluation, GALAP; type: in vivo, Galium aparine; conditions: preemergence
Summary of the method: as §2

[13] = system: ABUTH Velvetleaf; assay: Preemergence herbicidal evaluation, ABUTH; type: in vivo, Abutilon theophrasti, Medic.; conditions: preemergence
Summary of the method: as §2

[14] = system: ECHOG Barnyardgrass; assay: Postemergence herbicidal evaluation, ECHOG; type: in vivo, Echinochloa crus-galli, (L.) Beau; conditions: postemergence spray, rated about two-three weeks after treatment
Summary of the method: as §1

[15] = system: AMBEL Ragweed, Common; assay: Postemergence herbicidal evaluation, AMBEL; type: in vivo, Ambrosia artemisifolia, L.; conditions: postemergence spray, rated about two-three weeks after treatment
Summary of the method: as §1

[16] = system: GALAP Galium; assay: Postemergence herbicidal evaluation, GALAP; type: in vivo, Galium aparine; conditions: postemergence spray, rated about two-three weeks after treatment
Summary of the method: as §1

[17] = system: SETVI Foxtail, Green; assay: Preemergence herbicidal evaluation, SETVI; type: in vivo, Setaria viridis, (L.) Beau; conditions: preemergence
Summary of the method: as §2

[18] = system: CHEAL Lambsquarters, Common; assay: Postemergence herbicidal evaluation, CHEAL; type: in vivo, Chenopodium album, L.; conditions: postemergence spray, rated about two-three weeks after treatment
Summary of the method: as §1

[19] = system: CHEAL Lambsquarters, Common; assay: Preemergence herbicidal evaluation, CHEAL; type: in vivo, Chenopodium album, L.; conditions: preemergence
Summary of the method: as §2

[20] = system: CASOB Sicklepod; assay: Preemergence herbicidal evaluation, CASOB; type: in vivo, Cassia obtusifolia, L.; conditions: preemergence
Summary of the method: as §2

[21] = system: TRZAWR Wheat, Winter, cv Riband; assay: Postemergence herbicidal evaluation, TRZAWR; type: in vivo, Triticum aestivum; conditions: postemergence spray, rated about two-three weeks after treatment
Summary of the method: as §1

[22] = system: IPOHE Morningglory, Ivyleaf; assay: Preemergence herbicidal evaluation, IPOHE; type: in vivo, Ipomoea hederacea, (L.) Jacq.; conditions: preemergence
Summary of the method: as §2

[23] = system: ZEAMX Corn, Field; assay: Postemergence herbicidal evaluation, ZEAMX; type: in vivo, Zea mays, L. (Sammel-Bezeichnung); conditions: postemergence spray, rated about two-three weeks after treatment
Summary of the method: as §1

[24] = system: AMBEL Ragweed, Common; assay: Preemergence herbicidal evaluation, AMBEL; type: in vivo, Ambrosia artemisifolia, L.; conditions: preemergence
Summary of the method: as §2

C=CCOc1ccc(-n2nnc3cc(F)c(-n4c(=O)cc(C(F)(F)F)n(C)c4=O)cc32)c(C)c1 [Example 43]
Postemergence herbicidal rating CASOB ([1]; 0.008 kg/ha): 0.0 | Postemergence herbicidal rating CASOB ([1]; 0.016 kg/ha): 0.0 | Postemergence herbicidal rating CASOB ([1]; 0.032 kg/ha): 0.0 | Postemergence herbicidal rating CASOB ([1]; 0.062 kg/ha): 3.0 | ORYSAT herbicidal rating ([2]; rate 0.016 kg/ha): 0.0 | ORYSAT herbicidal rating ([2]; rate 0.032 kg/ha): 0.0 | ORYSAT herbicidal rating ([2]; rate 0.062 kg/ha): 0.0 | ORYSAT herbicidal rating ([2]; rate 0.125 kg/ha): 0.0 | Postemergence herbicidal rating GLXMAW ([3]; 0.008 kg/ha): 5.0 | Postemergence herbicidal rating GLXMAW ([3]; 0.016 kg/ha): 5.0 | Postemergence herbicidal rating GLXMAW ([3]; 0.032 kg/ha): 5.5 | Postemergence herbicidal rating GLXMAW ([3]; 0.062 kg/ha): 5.5 | ZEAMX herbicidal rating ([4]; rate 0.016 kg/ha): 0.0 | ZEAMX herbicidal rating ([4]; rate 0.032 kg/ha): 0.0 | ZEAMX herbicidal rating ([4]; rate 0.062 kg/ha): 0.0 | ZEAMX herbicidal rating ([4]; rate 0.125 kg/ha): 2.0 | GLXMAW herbicidal rating ([5]; rate 0.016 kg/ha): 1.0 | GLXMAW herbicidal rating ([5]; rate 0.032 kg/ha): 1.0 | GLXMAW herbicidal rating ([5]; rate 0.062 kg/ha): 0.0 | GLXMAW herbicidal rating ([5]; rate 0.125 kg/ha): 1.0 | Postemergence herbicidal rating SETVI ([6]; 0.008 kg/ha): 0.0 | Postemergence herbicidal rating SETVI ([6]; 0.016 kg/ha): 1.0 | Postemergence herbicidal rating SETVI ([6]; 0.032 kg/ha): 9.0 | Postemergence herbicidal rating SETVI ([6]; 0.062 kg/ha): 9.0 | Postemergence herbicidal rating ORYSAT ([7]; 0.008 kg/ha): 2.5 | Postemergence herbicidal rating ORYSAT ([7]; 0.016 kg/ha): 2.0 | Postemergence herbicidal rating ORYSAT ([7]; 0.032 kg/ha): 2.0 | Postemergence herbicidal rating ORYSAT ([7]; 0.062 kg/ha): 3.0 | ECHCG herbicidal rating ([8]; rate 0.016 kg/ha): 0.0 | ECHCG herbicidal rating ([8]; rate 0.032 kg/ha): 0.0 | ECHCG herbicidal rating ([8]; rate 0.062 kg/ha): 0.0 | ECHCG herbicidal rating ([8]; rate 0.125 kg/ha): 1.0 | TRZAWR herbicidal rating ([9]; rate 0.016 kg/ha): 0.0 | TRZAWR herbicidal rating ([9]; rate 0.032 kg/ha): 0.0 | TRZAWR herbicidal rating ([9]; rate 0.062 kg/ha): 0.0 | TRZAWR herbicidal rating ([9]; rate 0.125 kg/ha): 1.0 | Postemergence herbicidal rating IPOHE ([10]; 0.008 kg/ha): 9.0 | Postemergence herbicidal rating IPOHE ([10]; 0.016 kg/ha): 9.0 | Postemergence herbicidal rating IPOHE ([10]; 0.032 kg/ha): 9.0 | Postemergence herbicidal rating IPOHE ([10]; 0.062 kg/ha): 9.0 | Postemergence herbicidal rating ABUTH ([11]; 0.008 kg/ha): 9.0 | Postemergence herbicidal rating ABUTH ([11]; 0.016 kg/ha): 9.0 | Postemergence herbicidal rating ABUTH ([11]; 0.032 kg/ha): 9.0 | Postemergence herbicidal rating ABUTH ([11]; 0.062 kg/ha): 9.0 | GALAP herbicidal rating ([12]; rate 0.016 kg/ha): 0.0 | GALAP herbicidal rating ([12]; rate 0.032 kg/ha): 0.0 | GALAP herbicidal rating ([12]; rate 0.062 kg/ha): 0.0 | GALAP herbicidal rating ([12]; rate 0.125 kg/ha): 0.0 | ABUTH herbicidal rating ([13]; rate 0.016 kg/ha): 0.0 | ABUTH herbicidal rating ([13]; rate 0.032 kg/ha): 1.0 | ABUTH herbicidal rating ([13]; rate 0.062 kg/ha): 9.0 | ABUTH herbicidal rating ([13]; rate 0.125 kg/ha): 8.0 | Postemergence herbicidal rating ECHCG ([14]; 0.008 kg/ha): 1.0 | Postemergence herbicidal rating ECHCG ([14]; 0.016 kg/ha): 1.0 | Postemergence herbicidal rating ECHCG ([14]; 0.032 kg/ha): 1.0 | Postemergence herbicidal rating ECHCG ([14]; 0.062 kg/ha): 2.0 | Postemergence herbicidal rating AMBEL ([15]; 0.008 kg/ha): 1.0 | Postemergence herbicidal rating AMBEL ([15]; 0.016 kg/ha): 7.0 | Postemergence herbicidal rating AMBEL ([15]; 0.032 kg/ha): 7.0 | Postemergence herbicidal rating AMBEL ([15]; 0.062 kg/ha): 9.0 | Postemergence herbicidal rating GALAP ([16]; 0.008 kg/ha): 0.0 | Postemergence herbicidal rating GALAP ([16]; 0.016 kg/ha): 0.0 | Postemergence herbicidal rating GALAP ([16]; 0.032 kg/ha): 1.0 | Postemergence herbicidal rating GALAP ([16]; 0.062 kg/ha): 1.0 | SETVI herbicidal rating ([17]; rate 0.016 kg/ha): 0.0 | SETVI herbicidal rating ([17]; rate 0.032 kg/ha): 1.0 | SETVI herbicidal rating ([17]; rate 0.062 kg/ha): 4.0 | SETVI herbicidal rating ([17]; rate 0.125 kg/ha): 7.0 | Postemergence herbicidal rating CHEAL ([18]; 0.008 kg/ha): 0.0 | Postemergence herbicidal rating CHEAL ([18]; 0.016 kg/ha): 3.0 | Postemergence herbicidal rating CHEAL ([18]; 0.032 kg/ha): 3.0 | Postemergence herbicidal rating CHEAL ([18]; 0.062 kg/ha): 4.0 | CHEAL herbicidal rating ([19]; rate 0.016 kg/ha): 9.0 | CHEAL herbicidal rating ([19]; rate 0.032 kg/ha): 9.0 | CHEAL herbicidal rating ([19]; rate 0.062 kg/ha): 9.0 | CHEAL herbicidal rating ([19]; rate 0.125 kg/ha): 9.0 | CASOB herbicidal rating ([20]; rate 0.016 kg/ha): 0.0 | CASOB herbicidal rating ([20]; rate 0.032 kg/ha): 0.0 | CASOB herbicidal rating ([20]; rate 0.062 kg/ha): 0.0 | CASOB herbicidal rating ([20]; rate 0.125 kg/ha): 0.0 | Postemergence herbicidal rating TRZAWR ([21]; 0.008 kg/ha): 3.0 | Postemergence herbicidal rating TRZAWR ([21]; 0.016 kg/ha): 3.0 | Postemergence herbicidal rating TRZAWR ([21]; 0.032 kg/ha): 3.0 | Postemergence herbicidal rating TRZAWR ([21]; 0.062 kg/ha): 3.0 | IPOHE herbicidal rating ([22]; rate 0.016 kg/ha): 0.0 | IPOHE herbicidal rating ([22]; rate 0.032 kg/ha): 0.0 | IPOHE herbicidal rating ([22]; rate 0.062 kg/ha): 0.0 | IPOHE herbicidal rating ([22]; rate 0.125 kg/ha): 0.0 | Postemergence herbicidal rating ZEAMX ([23]; 0.008 kg/ha): 4.0 | Postemergence herbicidal rating ZEAMX ([23]; 0.016 kg/ha): 5.0 | Postemergence herbicidal rating ZEAMX ([23]; 0.032 kg/ha): 5.0 | Postemergence herbicidal rating ZEAMX ([23]; 0.062 kg/ha): 5.0 | AMBEL herbicidal rating ([24]; rate 0.016 kg/ha): 0.0 | AMBEL herbicidal rating ([24]; rate 0.032 kg/ha): 0.0 | AMBEL herbicidal rating ([24]; rate 0.062 kg/ha): 0.0 | AMBEL herbicidal rating ([24]; rate 0.125 kg/ha): 0.0
